Earlier results on one compound are cited in patent US10130562B2, “Monomer mixture for the preparation of dental materials” (Ivoclar Vivadent AG, priority 2014, dated 2018).

Broadly, the LD50 is the dose at which mortality reaches 50%.

The test system of data set [1] is DNA molecules of mammals.
Data set [2] concerns rat. The note with it: in vivo.

For `C=C(C)C(=O)OCCOCCOCCOC(=O)C(=C)C` [TEGDMA, triethylene glycol dimethacrylate], the “gene mutations in the DNA molecules of mammals” value in data set [1] was “leads to gene mutations”. In addition, the LD50 in data set [2] was > 5000 mg/kg.
